The IC50 is the concentration that inhibits the measured activity by half.

The experiment in a line: Antagonist activity at human CXCR3 expressed in mouse L1.2 cells assessed as inhibition of IP10-induced chemotaxis after 4 hrs.
For `O=C(NCC1CC1)c1ccc(CN(Cc2cccc(Cl)c2)S(=O)(=O)c2ccc(Cl)cc2)cc1` [4-((4-chloro-N-(3-chlorobenzyl)phenylsulfonamido)methyl)-N-(cyclopropylmethyl)benzamide], the IC50 worked out at 940 nM. Under `O=C(NCc1cccc(Cl)c1)c1ccc(CN(Cc2ccccn2)S(=O)(=O)c2ccc(Cl)cc2)cc1` [4-((4-chloro-N-(pyridin-2-ylmethyl)phenylsulfonamido)methyl)-N-(3-chlorobenzyl)benzamide] stands 85 nM; under `N#Cc1ccc(S(=O)(=O)N(Cc2ccc(C(=O)O)c(F)c2)Cc2ccccn2)cc1` [4-((4-cyano-N-(pyridin-2-ylmethyl)phenylsulfonamido)methyl)-2-fluorobenzoicacid], 1080 nM.

`O=C(NCC1CC1)c1ccc(CN(Cc2ccccc2)S(=O)(=O)c2ccc(OC(F)(F)F)cc2)cc1` [4-((N-benzyl-4-(trifluoromethoxy)phenylsulfonamido)methyl)-N-(cyclopropylmethyl)benzamide]: the IC50 came to 5580 nM. Under `O=C(NCC1CC1)c1ccc(CN(Cc2ccccc2)S(=O)(=O)c2ccc(Cl)cc2)cc1` [4-((N-benzyl-4-chlorophenylsulfonamido)methyl)-N-(cyclopropylmethyl)benzamide] stands 1980 nM. With `O=C(O)c1ccc(CN(Cc2ccccc2)S(=O)(=O)c2ccc(Cl)cc2)cc1` [4-((N-benzyl-4-chlorophenylsulfonamido)methyl)benzoicacid] the figure was 2940 nM; with `CCOc1ccc(S(=O)(=O)N(Cc2ccccc2)Cc2ccc(C(=O)NCC3CC3)cc2)cc1` [4-((N-benzyl-4-ethoxyphenylsulfonamido)methyl)-N-(cyclopropylmethyl)benzamide], 673 nM; with `COc1ccc(S(=O)(=O)N(Cc2ccccc2)Cc2ccc(C(=O)NCC3CC3)cc2)cc1` [4-((N-benzyl-4-methoxyphenylsulfonamido)methyl)-N-(cyclopropylmethyl)benzamide], 697 nM.

With `COc1ccc(S(=O)(=O)N(Cc2ccccc2)Cc2ccc(C(=O)O)cc2)cc1` [4-((N-benzyl-4-methoxyphenylsulfonamido)methyl)benzoicacid], the IC50 turned out to be 6440 nM. Under `O=S(=O)(c1ccc(Cl)cc1)N(Cc1ccc(-c2nnn[nH]2)c(F)c1)Cc1ccccn1` [4-chloro-N-(3-fluoro-4-(1H-tetrazol-5-yl)benzyl)-N-(pyridin-2-ylmethyl)benzenesulfonamide] stands 440 nM; under `O=S(=O)(c1ccc(Cl)cc1)N(CCc1cc2ccccc2cn1)Cc1ccc(-c2nnn[nH]2)cc1` [N-(4-(1H-tetrazol-5-yl)benzyl)-4-chloro-N-(2-(isoquinolin-3-yl)ethyl)benzenesulfonamide], 911 nM; under `CCOc1ccc(S(=O)(=O)N(Cc2ccc(-c3nnn[nH]3)cc2)Cc2ccccn2)cc1` [N-(4-(1H-tetrazol-5-yl)benzyl)-4-ethoxy-N-(pyridin-2-ylmethyl)benzenesulfonamide], 540 nM. Under `CC(C)(C)c1nc(CCN(Cc2ccc(-c3nnn[nH]3)cc2)S(=O)(=O)c2ccc(Cl)cc2)no1` [N-(4-(1H-tetrazol-5-yl)benzyl)-N-(2-(5-tert-butyl-1,2,4-oxadiazol-3-yl)ethyl)-4-chlorobenzenesulfonamide] stands 254 nM; under `COc1ccc(S(=O)(=O)N(Cc2ccc(C(=O)NCC3CC3)cc2)Cc2cccnc2)cc1` [N-(cyclopropylmethyl)-4-((4-methoxy-N-(pyridin-3-ylmethyl)phenylsulfonamido)methyl)benzamide], 1150 nM; under `COc1ccc(S(=O)(=O)N(Cc2ccccc2)Cc2ccc(C(=O)NCc3ccccc3)cc2)cc1` [N-benzyl-4-((N-benzyl-4-methoxyphenylsulfonamido)methyl)benzamide], 347 nM.

The values above are taken from BindingDB's records for doi:10.1016/j.bmcl.2010.04.113 (Merck Serono, 2010).
